According to the supplement of paper PMC10307832:

Experiments:
Test in all cases: relative viability (nuclei count vs DMSO), 5 days (fraction); higher = more cells survive
Palbociclib + Decitabine = compound: CC(=O)c1c(C)c2cnc(Nc3ccc(N4CCNCC4)cn3)nc2n(C2CCCC2)c1=O [Palbociclib] + Nc1ncn([C@H]2C[C@H](O)[C@@H](CO)O2)c(=O)n1 [Decitabine] (partner 2 µM)
Outline: (§1)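 Values are medians from duplicate plates. Each reflects relative viability, defined as the nuclei count of treated wells over that of vehicle wells. Lung cancer cell lines in 1536-well plates were pin-tool dosed one day after seeding with one drug alone or with a fixed anchor-drug dose plus five library-drug doses (not always all listed) in √10 steps, then fixed, stained and imaged at 4× after 5 days.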

Palbociclib + Luminespib = compound: CC(=O)c1c(C)c2cnc(Nc3ccc(N4CCNCC4)cn3)nc2n(C2CCCC2)c1=O [Palbociclib] + CCNC(=O)c1noc(-c2cc(C(C)C)c(O)cc2O)c1-c1ccc(CN2CCOCC2)cc1 [Luminespib] (partner 0.01 µM)
Outline: as §1

Palbociclib + Dasatinib = compound: CC(=O)c1c(C)c2cnc(Nc3ccc(N4CCNCC4)cn3)nc2n(C2CCCC2)c1=O [Palbociclib] + Cc1nc(Nc2ncc(C(=O)Nc3c(C)cccc3Cl)s2)cc(N2CCN(CCO)CC2)n1 [Dasatinib] (partner 0.075 µM)
Outline: as §1

Palbociclib + Olaparib = compound: CC(=O)c1c(C)c2cnc(Nc3ccc(N4CCNCC4)cn3)nc2n(C2CCCC2)c1=O [Palbociclib] + O=C(c1cc(Cc2n[nH]c(=O)c3ccccc23)ccc1F)N1CCN(C(=O)C2CC2)CC1 [Olaparib] (partner 8 µM)
Outline: as §1

Cell Line	relative viability (Palbociclib + Decitabine; first compound 0.01 µM)	relative viability (Palbociclib + Decitabine; first compound 0.1 µM)	relative viability (Palbociclib + Decitabine; first compound 0.3162 µM)	relative viability (Palbociclib + Decitabine; first compound 1 µM)	relative viability (Palbociclib + Luminespib; first compound 0.01 µM)	relative viability (Palbociclib + Luminespib; first compound 0.03162 µM)	relative viability (Palbociclib + Luminespib; first compound 0.1 µM)	relative viability (Palbociclib + Luminespib; first compound 0.3162 µM)	relative viability (Palbociclib + Luminespib; first compound 1 µM)	relative viability (Palbociclib + Dasatinib; first compound 0.01 µM)	relative viability (Palbociclib + Dasatinib; first compound 0.03162 µM)	relative viability (Palbociclib + Dasatinib; first compound 0.1 µM)	relative viability (Palbociclib + Dasatinib; first compound 0.3162 µM)	relative viability (Palbociclib + Dasatinib; first compound 1 µM)	relative viability (Palbociclib + Olaparib; first compound 0.01 µM)	relative viability (Palbociclib + Olaparib; first compound 0.1 µM)	relative viability (Palbociclib + Olaparib; first compound 0.3162 µM)	relative viability (Palbociclib + Olaparib; first compound 1 µM)	relative viability (Palbociclib + Decitabine; first compound 0.03162 µM)	relative viability (Palbociclib + Olaparib; first compound 0.03162 µM)
LU99A	0.926	0.863	0.813	0.684	0.254	0.201	0.232	0.251	0.2	0.506	0.428	0.353	0.344	0.379	0.24	0.281	0.26	0.271	–	–
HCC-366	0.338	0.33	0.334	0.342	–	–	–	–	–	0.611	–	0.605	0.444	0.174	0.376	0.384	0.335	0.215	–	–
HOP-62	0.179	0.237	0.207	0.257	0.905	0.844	0.91	0.716	0.675	0.704	–	0.57	0.525	0.463	0.319	0.618	0.399	0.452	–	–
NCI-H1734	0.46	0.539	0.461	0.43	0.251	0.182	0.193	0.197	0.17	0.461	0.365	0.393	0.296	0.254	0.616	0.566	0.494	0.407	0.524	0.596
NCI-H3122	0.394	0.347	0.33	0.277	0.081	0.0895	0.0794	0.0926	0.0834	0.762	0.546	0.386	0.414	0.231	0.596	0.635	0.584	0.528	0.423	0.576
RERF-LC-KJ	0.879	0.733	0.748	0.767	1.4	1.17	0.937	1.3	1.48	0.832	0.802	0.717	0.852	0.922	0.896	0.919	0.942	0.821	0.732	0.83
NCI-H2087	0.234	0.2	0.228	0.171	0.175	–	0.137	0.235	0.203	0.784	–	0.658	0.385	0.328	0.721	0.403	0.437	0.248	0.272	0.517
201T	0.827	0.836	0.834	0.665	1.02	1.01	0.909	0.878	0.749	0.54	0.494	0.579	0.388	0.324	0.817	0.781	0.684	0.65	0.836	0.819
ABC-1	0.948	1.23	0.978	0.873	0.625	0.521	0.423	0.459	0.949	0.546	0.537	0.493	0.457	0.377	0.89	0.602	1.04	0.898	1.03	0.757
NCI-H1993	0.61	0.606	0.507	0.555	0.8	0.781	0.762	0.671	0.888	0.68	0.542	0.509	0.415	0.439	1.14	0.945	0.846	0.703	0.588	0.907
NCI-H2085	0.555	0.65	0.534	0.538	0.426	0.332	0.376	0.412	0.327	0.233	0.282	0.209	0.252	0.191	0.788	0.712	0.584	0.488	0.55	0.767
COR-L 105	0.777	0.554	0.604	0.452	0.689	0.814	0.596	0.475	0.536	0.339	0.312	0.274	0.326	0.253	0.711	0.564	0.475	0.432	0.629	0.552
SK-LU-1	0.644	0.6	0.639	0.505	0.218	0.177	0.222	0.223	0.207	0.183	0.157	0.147	0.133	0.161	0.51	0.428	0.371	0.263	0.659	0.425
NCI-H2342	0.744	0.602	0.713	0.582	0.719	0.757	0.575	0.718	0.549	0.324	0.302	0.306	0.301	0.314	0.497	0.375	0.422	0.419	0.712	0.504
PC-3 [JPC-3]	0.804	0.76	0.782	0.607	0.708	0.743	0.649	0.661	0.53	1.06	0.758	0.936	0.801	0.566	1.16	0.816	0.872	0.526	0.713	0.903
NCI-H1563	–	–	–	–	0.479	0.444	0.432	0.577	0.489	0.456	0.44	0.484	0.471	0.429	–	–	–	–	–	–
NCI-H2009	0.375	0.358	0.365	0.274	1.04	0.897	0.817	0.701	0.519	0.272	0.212	0.187	0.223	0.159	0.691	0.545	0.54	0.366	0.347	0.617
